The values that follow come from patent US10905783B2, “Glucosamine and derivatives thereof in imaging” (priority 2015, dated 2021).

Data set [1] relates to TSA and B16 cancer models. The note with it: cited from earlier work.
A further data set has as its system 4T1 tumor. The experiment in a line: In vivo CEST MRI of 4T1 breast tumors in mice. Set-up: species or system mouse. The method, then: 4T1 mouse mammary tumor cell lines were obtained from ATCC. Cells were cultured in high glucose DMEM supplemented 5% FBS, 5% NCS, NEAA and antibiotics (100 units/ml penicillin and 100 μg/ml streptomycin) at 37° C. in a humidified atmosphere containing 5% CO2.
BALB/C female mice were purchased and kept in the breeding facility of Life Science School, Tel Aviv University. To induce orthotropic xenograph tumors in the mice. 4T1 cells were injected into the lower left mammary gland of 8-week-old (17-22 gram) animals (10^6 cells in 100 μL saline). The tumors were allowed to grow for 10-14 days, reaching an average tumor volume of 5 mm^3. All experiments with animal models were carried out in compliance with the principles of the National Research Council (NRC) and were approved by the institutional animal care and use committee (IACUC) (#M-15-057).
A Bruker 7 Tesla (T) Biospec scanner with 30 cm bore size was used to scan implanted xenograph mammary tumors of mice before and after administration (i.v., i.p. or p.o.) of glucosamine or its derivatives (the glucose analogues were dissolved in saline, pH 7.4). 4T1 or MCF7 tumor-bearing mice, with an average tumor volume of 2-7 mm^3, were fasted overnight with water access, anesthetized with isoflurane (1-2%) and scanned (without surface coil). Their temperature was maintained at 37° C.
At first, T2 RARE anatomical images (RARE factor-8, TR-3000 ms, TE-11.7 ms) were acquired to identify the slice selection with maximum tumor size. The CEST images were generated as follows: a series of T2 RARE images (RARE factor-1, TR-3000 ms, TE-11.7 ms) were collected from a single 1 mm coronal slice of the abdominal area (acquisition matrix before zero filling 128×64, field of view of 40×40 mm^2) after a 2 s presaturation pulse of B1=2.5 μT (106 Hz) at the hydroxyl proton frequency offset of ±1.2 ppm from the water signal. The CEST images were acquired before and after glucosamine or its derivatives administration in order to identify the baseline. The acquisition continued for more than an hour after treatment.
The mean intensities in the selected region of interest (ROI) of the tumor were used for the % CEST plot.

For data set [2] the following is noted: cited from earlier work.

Molecules are shown by their SMILES.

For the molecule `CC(=O)N[C@H]1C(O)O[C@H](CO)[C@@H](O)[C@@H]1O` (stereo partly drawn) [N-Acetyl-D-glucosamine], in data set [1], the CEST contrast result is “increase CEST contrast”.

In the case of `O=C[C@H](O)[C@@H](O)[C@H](O)[C@H](O)CO` [D-glucose], the “time after administration at which the CEST signal decreased dramatically” value with 4T1 tumor (D-glucose 1000 mg/kg per os, same animal as glucosamine) fell in the range of 30 to 40 min. The “duration of the CEST signal” value in the data set with 4T1 tumor (PO, 4T1 model) was “less than an hour”. Further, the CEST signal result in the data set with 4T1 tumor (oral doses of less than 1 g/kg) is “no significant CEST signal”. The “CEST signal 60 minutes after administering” value with 4T1 tumor (same animal, glucosamine at half the dosage of D-glucose) is “no CEST signal was observed”.

With `O=CC[C@@H](O)[C@H](O)[C@H](O)CO` [2-DG, 2-deoxy-D-glucose], the toxic dose in data set [2] (rats) is 3 g/kg.

Turning to `O=C[C@H](F)[C@@H](O)[C@H](O)[C@H](O)CO` [FDG, 2-fluoro-deoxy-D-glucose], the toxicity result in data set [2] (high concentrations) is recorded as “toxic at high concentrations”.
